We go through four compounds from US20250236596A1, “HYDROXYLAMINE-BASED EGFR INHIBITORS FOR TREATMENT OF CANCER WITH BRAIN METASTASES” (University of Georgia Research Foundation, Inc., priority 2022, published 2025).

The test system of one series is Caco-2 cells. Nature of the series: Caco-2 cell permeability assay. It counts as in vitro ADME. To be noted: for efflux / permeability: result in words. As to the method:
(§1) Compounds were evaluated at Pharmaron Inc. for their ability to permeate Caco-2 cells and MDCKII-MDR1 cells. A 96-well HTS Transwell plate (Corning) was used for the Caco-2 and MDCKII-MDR1 cell seeding. Caco-2 cells were seeded at a density of 6.86×10^5 cells/mL and cultivated for 14-18 days prior to assays. MDCKII-MDR1 cells were seeded at a density of 1.56×10^6 cells/mL and cultivated for 4-8 days prior to assays. To determine the rate of drug transport in both the absorptive (apical to basolateral (A-B)) and secretory (basolateral to apical (B-A)) directions, compounds (5 μM in DMSO for Caco-2 cells, and 1 μM in DMSO for MDCKII-MDR1 cells) were added to the donor wells. Plates were incubated at 37° C. for 2 h and samples (50 μL) were taken at the beginning and end of the incubation in both the donor and acceptor wells with the assay run in duplicate (n=2). Samples were analyzed by LC-MS/MS. The apparent permeability coefficient (Papp) in units (cm/s×10^−6) was calculated using the following equation.
(§2) where, VA represents the volume (mL) in the acceptor well. Area is the surface of the membrane (0.143 cm^2 for Transwell-96 well plate) and time is the total transport time in sec.
(§3) The efflux ratio was determined using the following equation: Efflux ratio=Papp (B-A)/Papp(A-B)
(§4) Where, Papp (B-A) indicates the apparent permeability in the basolateral to apical direction, and Papp (A-B) indicates the apparent permeability in the apical to basolateral direction.
On the technique in general: Caco-2 monolayers are a common model of the intestinal barrier.

Another series relates to MDCKII-MDR1 cells. Nature of the series: MDCKII-MDR1 cell permeability assay. It counts as in vitro ADME, canine. As to the method:
as §1, §2, §3, §4

Series [1] concerns Salmonella strains (TA98, TA100, TA1537 and TA1535). It counts as cell-based. To be noted: with and without rat liver S9; 4 Salmonella strains. As to the method: Compounds were assessed for mutagenicity at Eurofins Panlabs. in 384-well plates using four Salmonella strains: TA98, to probe for frameshift mutation (with quercetin as control), TA100 and TA1535, to probe for base pair […] (with streptozotocin as control), and TA1537, to probe for frameshift mutations (with aminoacridine as control) as previously described.^21 Each compound was incubated at 37° C. for 96 h at four different concentrations (5, 10, 50, and 100 μM), with each concentration tested using 48 replicates, both with and without rat liver S9 metabolic activation. A concurrent bacterial cytotoxicity assay was ran at 0.6, 1.2, 2.5, 5, 10, 25, 50 and 100 μM to rule out false negatives. Bacterial cytotoxicity was expressed as percent of control growth (OD650). Compounds with growth of less than 60% control were flagged and considered bacterial cytotoxic. […] Significances of the positive counts between the treatment and control were determined using one-tailed Fisher's exact test.

Series [2] concerns the target activating mutant bearing EGFR. Briefly: KINOMEScan KdELECT inhibitor binding constants (Kd). To be noted: result in words. As to the method: (§5) In vitro kinase activity (inhibitor binding constants (Kd) and biochemical inhibition (IC50's)) were assessed by Eurofins DiscoverX (Kd determinations) and Eurofins Cerep (biochemical IC50 determinations).
Series [3] deals with activating mutant bearing EGFR. Nature of the series: KinaseProfiler enzymatic radiometric biochemical inhibition (IC50). To be noted: ATP 10 μM, result in words. As to the method:
as §5

For `COc1cc2ncnc(Nc3cccc(Cl)c3F)c2cc1OCCON1CCOCC1` [Compound 13, N-(3-chloro-2-fluorophenyl)-7-methoxy-6-(2-(morpholinooxy)ethoxy)quinazolin-4-amine], the efflux result is on record as “reduced efflux ratios” with Caco-2 cells and “low efflux” in the series with MDCKII-MDR1 cells (result in words). Besides, the permeability entry in the series on Caco-2 cells is on record as “remarkably enhanced permeability”; in the series on MDCKII-MDR1 cells (result in words) it was “excellent permeability”.

As for `COc1cc2ncnc(Nc3ccc(F)c(Cl)c3)c2cc1OCCCN1CCOCC1` [Compound 1, Gefitinib, reference compound], the “mutagenicity in AMES fluctuation assay” value in series [1] is listed as “neither 1 or 6 were mutagenic”.

With `COc1cc2ncnc(Nc3ccc(F)c(Cl)c3)c2cc1OCCON1CCN(C)CC1` [Compound 14, N-(3-chloro-4-fluorophenyl)-7-methoxy-6-(2-((4-methylpiperazin-1-yl)oxy)ethoxy)quinazolin-4-amine], in the series on Caco-2 cells, the efflux entry is on record as “high efflux” and the permeability entry is listed as “low permeability”.

As to `COc1cc2ncnc(Nc3ccc(F)c(Cl)c3)c2cc1OCCON1CCOCC1` [Compound 6, N-(3-chloro-4-fluorophenyl)-7-methoxy-6-(2-(morpholinooxy)ethoxy)quinazolin-4-amine], the “inhibitor-binding constants (Kd)” value in series [2] is on record as “single-digit nanomolar”. In addition, the “biochemical inhibition (IC50)” value in series [3] is “single-digit nanomolar”. In the series on Caco-2 cells, the “enhancement in permeability compared to 1” value is reported as 14 fold and the efflux entry is listed as “greatly decreased efflux”. Besides, the “mutagenicity in AMES fluctuation assay” value in series [1] was “neither 1 or 6 were mutagenic”. The “increase in permeability compared to 1” value in the series on MDCKII-MDR1 cells was “roughly 4 fold”. In addition, the efflux result with MDCKII-MDR1 cells (result in words) was “decreased efflux”.
